Data set [1] relates to MDA-MB-231 orthotopic tumor. Put plainly: Orthotopic MDA-MB-231 tumor model, 15 mg/kg gavage. The data set is classed as in vivo, mice. On the procedure:
Animals used for this study were approved by and conducted according to the guidelines of the University of Pittsburgh IACUC. MDA-MB-231 cells (0.5×106) were injected into the mammary fat pad (left 4th gland) of 6-wk-old female nude mice in a volume of 20 μL sterile saline. When tumors reached an average volume of 100 mm^3, mice were treated with OA+vehicle (n=8), OA-NO2+vehicle (n=7), OA+talazoparib (0.3 mg/kg) (n=10) or OA-NO2 (15 mg/kg)+talazoparib (n=11). Tumor volume was measured by caliper over time in P-values: *<0.01, ***<0.001, ****<0.0001. The surgical procedure has been previously described.
Whether NO2-OA could also enhance TNBC DNA damage in vivo was also assessed. […] (FIG. 1B). […] This response became statistically significant after Grubbs outlier detection and elimination of OA treated mouse #2. The orthotopic tumor in OA mouse #2 was the largest tumor in the study, with necrosis potentially causing enhanced γH2AX levels.

In data set [2] the test system is homologous recombination (DR-GFP, U2OS cells). Put plainly: DR-GFP HR reporter assay in U2OS cells. Type of data set: cell-based. The procedure: Measurements of NHEJ, HR, Alt-EJ and SSA assays were performed as previously described. HR activity was measured by counting GFP-positive cells by flow cytometry at the MWRI flow cytometry core using a BD LSRII (BD Biosciences). RAD51 overexpressing cells were generated by stable transfection of pLVX RAD51 IRES Neo and selection with geneticin (Invitrogen).
U2OS cells were prepared as above, but 5 h following compound treatment, cells were transferred into the Incucyte Zoom (Essen) live-cell imaging automated fluorescence microscope at 37° C. with 5% CO2. Cell confluence and green object count per mm2 were determined using Incucyte Zoom software. Green object count per field was normalized to cell confluency to correct for NO2—OA-induced effects on cell proliferation.
NO2-OA-dependent effects on HR DNA repair were further investigated by utilizing a DRGFP reporter assay. This analysis quantifies intracellular recombination of an integrated cDNA cassette of two tandem non-fluorescent GFP constructs following introduction of an I-SceI cleavage to the system by measuring the fluorescent GFP protein that is produced following successful recombination. […] A novel strategy was used to measure the kinetics of changes in HR in live cells by using automated fluorescence microscopy to track the emergence of GFP positive cells over time in monolayers, as opposed to making static measurements of detached cells using flow cytometry. […] This was indicated by an absence of changes in the number of GFP positive cells following I-SceI cleavage after 48 h by flow cytometric analysis or over 68 h by live-cell fluorescence microscopy (FIGS. 2C, 2D).
On the technique in general: In a reporter assay the amount or activity of a reporter protein is the signal.

Data set [3] concerns RAD51 foci in MDA-MB-231 cells. Put plainly: RAD51 foci and γH2AX immunofluorescence after 5 Gy IR. The data set is classed as cell-based. The procedure:
To analyze RAD51 foci formation, 10,000 cells were plated to CultureWell 16-well chambered cover glass (MIDSCI) coated with poly-L-lysine (Sigma) and incubated overnight in 5% FBS media. […] Cells were fixed with 10% formalin for 20 min at 4° C. and immunostained with RAD51 (Santa Cruz) or γH2AX (EMD Biosciences) antibodies. Z-stack images were acquired using a Nikon AIR confocal microscope with 60× oil objective and acquisition performed using NIS elements software. Quantification of z-stacks and foci were completed using ImageJ software.
Data represent the mean±SEM from 3 independent experiments unless otherwise noted. A p value<0.05 was considered statistically significant. Non-linear curves were generated in GraphPad Prism 7.0 (GraphPad Software, La Jolla, CA, USA) for statistical analysis. EC50 values and standard error were calculated from three independent experiments utilizing a non-linear dose response variable slope model. Significance was tested by one-way ANOVA for multiple groups with Tukey posttest or by t-test when groups were less than three. RAD51 foci number was analyzed with ImageJ. Nuclear boundaries were individually identified in more than 50 cells per treatment group in three independent experiments.

The subject of data set [4] is breast cancer cell. Put plainly: Clonogenic assay after 2 Gy IR. Type of data set: cell-based. As to conditions: increasing concentrations.
Data set [5] deals with T1, RAD51 (Homo sapiens, UniProt Q06609).
T1 construct: purchased Abcam
T1 sequence (Q06609 whole entry): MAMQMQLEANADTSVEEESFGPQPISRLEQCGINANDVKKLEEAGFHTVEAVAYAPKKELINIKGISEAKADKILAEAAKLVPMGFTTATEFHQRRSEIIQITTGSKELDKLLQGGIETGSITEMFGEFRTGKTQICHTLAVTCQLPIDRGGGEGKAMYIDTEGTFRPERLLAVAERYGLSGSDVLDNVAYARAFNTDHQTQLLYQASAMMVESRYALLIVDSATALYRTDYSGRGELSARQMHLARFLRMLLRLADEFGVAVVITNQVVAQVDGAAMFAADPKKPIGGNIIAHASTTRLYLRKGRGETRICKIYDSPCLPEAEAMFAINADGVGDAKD
As to the kind of experiment: RAD51 ssDNA binding, fluorescence polarization. Type of data set: biochemical. The following applies: 5 or 10 μM, ATP and Alexa Fluor 488 DNA. On the procedure: Reactions were performed in black 96-well plates (Greiner) in 50 μL reaction volumes in 20 mM HEPES pH 7.5, 10 mM MgCl2, 0.25 μM BSA, 2% glycerol, 30 mM NaCl and 4% DMSO. […] 2 mM ATP and 100 nM 5′-Alexa Fluor 488 ssDNA poly-dT (Integrated DNA technologies) were added to the reaction and incubated for 90 min at 37° C. DNA binding was measured using fluorescence polarization (FP) on a Tecan Spark 20M (ex/em 480 nm/535 nm). Compound fluorescence quenching was detected as above in the absence of RAD51 protein.
In general terms: In fluorescence polarisation assays a small probe gives low polarisation when free and higher when bound to something large.

For data set [6], the system named is TNBC cells. As to the kind of experiment: Cellular H2O2 production. Type of data set: cell-based. As to conditions: short term and extended (6 hr) treatment.
Data set [7] relates to NF-κB transcriptional activity. As to the kind of experiment: NF-κB luciferase reporter. The data set is classed as cell-based. The following applies: MDA-MB-231 and MDA-MB-468 cells, 5 μM 2 hr then TNFα 20 ng/mL 4 hr. The procedure: Luciferase-chemiluminescence-based analysis of NF-κB transcriptional activity was performed. MDA-MB-231 and MDA-MB-468 cells (˜70% confluence) in 12-well plates were transiently transfected with a NF-κB-luciferase reporter plasmid (Stratagene, La Jolla, CA) with Lipofectamine 3000. […] Each transfection was performed in triplicate. Luciferase activity was measured using the Dual-luciferase assay kit (Promega). Relative light units (RLU) were measured using a 96-well plate luminometer, according to the manufacturer's instructions (Victor II, PerkinElmer Life Sciences). Protein concentration was determined using the BCA Assay (Thermo Fisher Scientific). Data represents the ratio of treated samples to controls in the context of mean RLU/protein content, +/−SD. Three individual experiments were done, and statistical significance was determined by Kruskal-Wallis test followed by Dunn's post-test with Bonferroni corrections for multiple comparisons.

For data set [8] the following is noted: intravenous and oral formulations; cited from earlier work.

The structures appear in SMILES notation.

In the case of `CCCCCCCCC(=CCCCCCCCC(=O)O)[N+](=O)[O-]` [NO2-OA, 10-nitro-octadec-9-enoic acid], in data set [1] (15 mg/kg by gavage for 4 wk, versus OA), the “tumor γH2AX level by immunoblot” value is “higher levels of γH2AX”. In addition, the tumor growth rate entry in data set [1] (15 mg/kg by gavage for 4 wk, versus OA treated controls) is listed as “significantly decreased tumor growth rates”. In data set [1] (NO2-OA 15 mg/kg + talazoparib 0.3 mg/kg versus either alone), the “tumor reduction / tumor volume in combination with talazoparib” value was “significant greater tumor reduction compared to talazoparib or NO2-OA alone”. For the same molecule, the “HR activity in RAD51 overexpressing versus control reporter cells” value in data set [2] (5 μM NO2-OA) is “significantly increased”. In addition, in data set [2] (daily 5 μM, over 68 h, live-cell microscopy), the “decrease in number of GFP-positive cells (HR)” value is reported as 2 fold. The “decrease in number of GFP positive cells (HR)” value in data set [2] (daily NO2-OA, 48 h, flow cytometry, versus OA or vehicle) is reported as 2 fold. Besides, the RAD51 foci formation entry in data set [3] (5 μM, 6 h) is recorded as “inhibited RAD51 foci formation”. In data set [3] (versus vehicle), the “nuclear γH2AX localization” value is on record as “significantly increased nuclear γH2AX localization”. Besides, in data set [4], the “cell death in clonogenic assay” value is on record as “enhanced breast cancer cell death”. Also, the “relative fluorescence polarization of RAD51 with ssDNA” value in data set [5] is listed as “decreased the relative polarization of RAD51”. Besides, the “cellular rates of H2O2 production” value in data set [6] is “did not significantly impact cellular rates of H2O2 production”. For the same molecule, the “NF-κB-dependent transcription of luciferase” value in data set [7] is “significantly inhibited”. For the same molecule, the clinical safety entry in data set [8] is given as “safe”.

Source of the values: US12390435B2, “Electrophiles and electrophile pro-drugs as RAD51 inhibitors” (University of Pittsburgh—Of the Commonwealth System of …, priority 2018, dated 2025).
